Data published in US20230398130A1, “METHODS AND COMPOSITIONS FOR DIFFERENTIATING STEM CELLS” (Massachusetts Institute of Technology, priority 2020, published 2023).
“Also recorded” adds a separate entry of the source.

Legend:
organoid line = assay: Validation and dose optimization of the FDA library hits: lysozyme secretion normalized to ATP abundance; type: cell-based; settings: for lysozyme secretion normalized to ATP: 80 nM, different organoid line; for lysozyme secretion compared with KPT-330: in vitro validation, 80-320 nM
Protocol: Applicants next validated the initial screening results by the lysozyme secretion assays at four doses from 80 nM to 10 μM. To evaluate the cell-line dependent effect, Applicants utilized a different organoid line, derived from a different animal. DAPT-treated samples were prepared as positive controls, the same as in the screen. Applicants measured ATP abundance simultaneously as a surrogate of cell number and used it for normalizing lysozyme values. […] To further optimize the dose of each drug, Applicants treated with the three compounds at narrower dose range (80-320 nM) and KPT-330, previously identified PC inducer, for comparison.

[1] = test system: ENR-cultured 3D-embedded organoid; assay: 384 well-based 3D-embedded organoid screening (ENR, 6 days, FDA approved drug library, 10 μM): Cch-induced lysozyme secretion; type: cell-based, murine
Source text: Leveraging their experience in 2.5D culture organoid screening (Mead, et al., 2020 High-throughput organoid screening enables engineering of intestinal epithelial composition. bioRxiv 2020.04.27.063727; Example 2 and 5), Applicants optimized multiple parameters such as organoid number and density, Matrigel volume, and compound-induced secretion stimulation to detect secreted lysozyme from ENR-cultured 3D-embedded organoid. […] The scheme is shown in FIG. 31; briefly, (1) prepare small organoid fragments by mechanical disruption and culture in ENRCV media for 4 days to grow stem cell-rich organoid, (2) replace media to conventional organoid growth media (ENR) add compounds, and culture for 6 days in total, (3) measure Cch-induced lysozyme secretion and ATP abundance. Based on multiple condition examination results (see FIG. 32 as an example), Applicants concluded that 20 organoids/well and 7 μL Matrigel mixture/well is the reasonable culture condition for 384 well-based screening. Additionally, a Notch signaling inhibitor, DAPT, can be used as a positive control, and stimulating by carbachol helps broaden the window between negative and positive control samples (FIG. 32). Utilizing this newly established platform, Applicants performed 384 well-based high-throughput chemical compound screening, aiming for further identification of PC inducers. […] Applicants prepared duplicates for each sample to increase the reliability and chose a single dose point of drugs (10 μM) to execute the initial screening readily and efficiently while planning to analyze precise dose-responsiveness in the following validation step.
Applicants analyzed all the data by Python 3 as follows. Log 2 transformed lysozyme-derived fluorescent values were calculated; violin plots of negative and positive controls (FIG. 33) and histograms of samples were shown with respect to each assay plate (FIG. 34). […] To evaluate the compound effects, robust Z-scores were calculated based on the negative controls in each plate, and all results were concatenated. […]

Paneth cells [2] = assay: Flow cytometry of 3D-cultured intestinal organoids (ENR+CD, 6 days): Paneth cell fraction (lysozyme-positive, CD24-mid); type: cell-based, murine; settings: 160 nM KPT-8602, ENR+CD 6 days
Protocol: Flow cytometry analysis (3D culture). ISC-enriched organoids cultured in 3D Matrigel with ENRCV media were passaged to 24-well plate in 3D Matrigel with ENRCV. At day zero, media were replaced to ENRCD with or without indicated compounds, and media were replaced every other day. […] Flow cytometry was performed using an LSR Fortessa (BD; Koch Institute Flow Cytometry Core at MIT). The data were analyzed using FlowJo v10 software.
Single live cells were selected by several gating strategies and Paneth cells were identified as lysozyme-high, CD24-mid, side scatter-high (SSC-high) (FIG. 27E). […] To evaluate whether the culture media supplements C and D may alter the effects of the 6 hits, Applicants also performed lysozyme assay in the canonical ENR culture condition in 3-D (because Paneth cells exist in an immature state within ENR, Applicants were unable to robustly quantify Paneth cell number via flow cytometry).
(§1) Flow cytometry. ISC-enriched organoids in 3D Matrigel culture were passaged to a 48-well plate and induced differentiation for 6 days by ENR+CD media containing DMSO or each drug indicated in the figures. DMSO- or drug-containing media were changed every other day. […] After vigorous pipetting and incubation at 37° C. for 15 min, the cell solution was diluted twice with basal media and centrifuged at 300 rcf for 3 min. […] The cell solution was centrifuged again at 300 rcf for 3 min at 4° C. to pellet the cells. […] Cells were centrifuged again for 3 min at 300 rcf and blocked with staining buffer (FACS buffer containing 0.5% Tween20 (Sigma, P2287)) for 15 min at RT in the dark. […] Flow cytometry was performed using an LSR Fortessa (BD; Koch Institute Flow Cytometry Core at MIT). Flow cytometry data were analyzed using FlowJo X v10.6.1 software.
Live Paneth cells were identified as LYZ-high, CD24-mid, side scatter-high (SSC-high) (FIG. 50F).
as §1, with “organoids in 3-D Matrigel culture” for “organoids in 3D Matrigel culture”, “to a 24- or 48-well plate” for “to a 48-well plate”

Paneth cells [3] = assay: Immunofluorescent imaging of organoids: LYZ+ cells per organoid area; type: cell-based, murine; settings: 160 nM KPT-8602, ENR+CD 3 days
Protocol: Immunofluorescent imaging. For immunofluorescence staining of organoids, intestinal organoids in Matrigel were fixed with 4% paraformaldehyde, then transferred to centrifuge tube. After washing with PBS, the isolated organoids were permeabilized with 1% Triton X followed by incubation with blocking buffer (1% BSA+3% Donkey Serum+0.2% Triton X in PBS) at RT. The organoids were then stained with primary antibodies and fluorescent dye-labeled secondary antibodies as well as with DAPI. Slides were covered with […]® Mounting Media (VECTOR). The following primary and secondary antibodies were used for the staining: rabbit anti-Lysozyme (1:1000, Thermo Fisher Scientific), rat anti-E-cadherin (1:1000, Thermo Fisher Scientific), Alexa Fluor 488 and 568 secondary antibodies (1:1000, Invitrogen). Images were acquired with a confocal laser scanning microscope (Nikon Eclipse 90i). For the analysis of Lysozyme+ cells per organoid area, the number of counted Lysozyme+ cells were normalized to measured organoid surface area. Image J was used for the data analysis.

intestinal organoids = assay: Population RNA-sequencing of organoids; type: cell-based, murine; settings: ENR+CV, ENR+CD or ENR organoids
Protocol: Population RNA-sequencing. Population RNA-seq was performed using a derivative of the Smart-Seq2 protocol for single cells. In brief, organoid media was aspirated and RLT+BME (Qiagen) was added to each well, and plate shaken for 30 minutes to fully lyse. Lysate was aliquoted into 4 identical fractions and stored at −80° C. until reverse transcription. RNA lysate was thawed and cleaned with a 2.2×SPRI ratio using Agencourt RNAClean XP beads (Beckman Coulter, A63987). RNA-seq was performed on a bulk population of […] using Smart-Seq2 chemistry, starting with a 2.2×SPRI ratio cleanup. After oligo-dT priming, Maxima H Minus Reverse Transcriptase (ThermoFisher EP0753) was used to synthesize cDNA with an elongation step at 52° C. before PCR amplification (15 cycles for tissue, 18 cycles for sorted basal cells) using KAPA HiFi PCR Mastermix (Kapa Biosystems KK2602). Sequencing libraries were prepared using the Nextera XT DNA tagmentation kit (Illumina FC-131-1096) with 250 pg input for each sample. Libraries were pooled post-Nextera and cleaned using Agencourt AMPure SPRI beads with successive 0.7× and 0.8× ratio SPRIs and sequenced with an Illumina 75 Cycle NextSeq500/550v2 kit (Illumina FC-404-2005) with loading density at 2.2 pM, with paired end 35 cycle read structure. Samples were sequenced at an average read depth of 8.44 million reads per sample and a total of 96 samples.
Organoid samples were aligned to the Mm10 genome and transcriptome using STAR and RSEM. […] For module scoring with the in vivo Paneth and enteroendocrine cell-defining genes, Applicants used previously published gene sets and computed persample module scores through the Seurat package.

lysozyme (LYZ) = assay: Western blotting of lysozyme in 3D-cultured intestinal organoids; type: cell-based, murine; settings: organoids cultured 6 days in ENR+CV, ENR+CD or ENR
Source text: Western blotting. ISC-enriched organoids cultured in 3D Matrigel with ENRCV media were passaged to 24-well plate in 3D Matrigel with ENRCV. At day zero, media were replaced to ENR or ENRCD with or without indicated compounds, and media were replaced every other day. At day six, cells were harvested from Matrigel by mechanical disruption and suspended in basal media. Cell pellets were lysed with Pierce© IP lysis buffer (ThermoFisher, 87787) containing Halt™ Protease Inhibitor Cocktail, EDTA-Free (ThermoFisher, 87785) after 3-minute centrifuge at 300×g at 4° C. Cell extracts were resolved by NuPAGE© SDS-PAGE Gel system (ThermoFisher) and electroblotted onto polyvinylidene difluoride membranes using Criterion™ Blotter (Biorad). The membranes were blocked with 2% Blotting-Grade Blocker (Biorad, 1706404) in TBS-T (50 mM Tris-HCl, 150 mM NaCl, and 0.1% Tween 20, pH 8.0) and then probed with appropriate antibodies. Detection was performed using ECL Select™ Western Blotting Detection Reagent (Amersham, 45-000-999) and ImageQuant LAS4000 (GE Healthcare).
Western blotting. Organoid-containing gel was homogenized in basal medium and centrifuged at 300 rcf for 3 min. Organoid pellet was lysed with ice-cold Pierce IP Lysis Buffer (Thermo Fisher Scientific, #87787) containing Halt Protease Inhibitor Cocktail, EDTA-Free (Thermo Fisher Scientific, #87785) and incubated on ice for 20 min. The lysate was centrifuged at 17,000 rcf for 10 min, and the supernatant was combined with NuPAGE LDS Sample Buffer (Thermo Fisher Scientific, NP0007). Protein concentration was determined by Pierce 660 nm Protein Assay (Thermo Fisher Scientific, #22660) and normalized to the lowest concentration among each sample set. […] Chemiluminescent signals were detected by LAS4000 (GE Healthcare) using Amersham ECL Select Western Blotting Detection Reagent (GE Healthcare, #45-000-999), and total protein signals were obtained by Odyssey Imaging System (LI-COR Biosciences) using REVERT Total Protein Stain Kit (LI-COR Biosciences, #926-11010).

Compound | lysozyme secretion normalized to ATP (organoid line) | lysozyme secretion compared with KPT-330 (organoid line) | effect on Cch-induced lysozyme secretion (hit identification) [1] | Paneth cell proportion in organoids (Paneth cells [2]) | proportion of Paneth cells (IF imaging) (Paneth cells [3]) | secretory cell identity (Paneth, goblet, EEC) from bulk transcripts (intestinal organoids) | LYZ abundance per unit protein (Western blotting) (lysozyme (LYZ))
C=C1/C(=C\C=C2/CCC[C@]3(C)[C@@H]([C@H](C)/C=C/[C@@H](O)C4CC4)CC[C@@H]23)C[C@@H](O)C[C@@H]1O [Calcipotriene] | effects were validated | outperformed KPT-330 | identified as Paneth cell activators |  |  |  | 
Nc1ncn([C@H]2C[C@H](O)[C@@H](CO)O2)c(=O)n1 [Decitabine, 5-aza-2′-deoxycytidine] | effects were validated | outperformed KPT-330 | identified as Paneth cell activators |  |  |  | 
NC(=O)/C(=C/n1cnc(-c2cc(C(F)(F)F)cc(C(F)(F)F)c2)n1)c1cncnc1 [KPT-8602] |  |  |  | statistically significant increases in Paneth cell representation; also recorded: increased the proportion of PC; also recorded: increasing the proportion of Paneth cells | increasing the proportion of Paneth cells | increase secretory cells (Paneth, goblet, and EEC) | appreciably increase LYZ abundance
Nc1nc2nc[nH]c2c(=S)[nH]1 [Thioguanine] | effects were validated | outperformed KPT-330 | identified as Paneth cell activators |  |  |  | 
